SMILES strings stand for the structures.

A short description of data set [1]: Ex vivo biodistribution 2 h post injection after MRI study (ICP-MS). As to conditions: 0.1 mmol per kg i.v. Format: in vivo, C57/Bl6 mice. The method, then: (§1) Gd concentrations were determined using an Agilent 8800-QQQ ICP-MS system. All samples were diluted with 0.1% Triton X-100 in 5% nitric acid. Lutetium internal standard was steadily introduced to the ICP-MS from an external source during the analysis. A linear calibration curve for each metal ranging from 0.1 ppb to 200 ppb was generated daily for the quantification.
(§2) Imaging was performed at 4.7T using a small-bore animal scanner (Bruker Biospec). Pilot dynamic MRI studies were performed with [GdL1]^−, [GdL2A]^−, [GdL2B]^− and [GdL5]^−; n = 1 per compound. Six to eight weeks male C57/Bl6 mice were anaesthetised with isoflurane (1%–2%) and placed in a specially designed cradle with body temperature maintained at 37 °C. The tail vein was catherised for intravenous delivery of the contrast agent while the animal was positioned in the scanner. A pneumatic pillow was placed on the mouse to enable respiratory monitoring (SA Instruments), and the animal’s body temperature was maintained with warm air. The imaging protocol utilised a three-dimensional fast low angle shot (3D FLASH) with a […] flip angle, 9.00 ms repetition rate, 2.39 ms echo time, 4.8 cm × 2.4 cm × 2.4 cm field of view with a 0.3 mm isotropic resolution. Images were acquired with either 2 or 8 averages giving an acquisition time of 2 min or 8 min, respectively. Baseline images were acquired with both 2 and 8 averages, then the Gd complex (0.1 mmol per kg) was injected intravenously and the sequence with 2 averages was repeated for a period of 10 min to monitor blood clearance. At 10, 30, 45, 60, 75 and 90 min after probe injection, the sequence with 8 averages was repeated to monitor the clearance of contrast from the liver and kidneys. After imaging was performed, the mouse was removed from the scanner and euthanized at 2 h post injection and the tissues were harvested for Gd quantification by ICP-MS.

A short description of data set [2]: Gd complexes biodistribution studies (ICP-MS). Format: in vivo, BALB/c mice. Particulars: 0.025 mmol/kg i.v., 5-360 min post injection.
Source text: Most commercially available Gd(III)-based MRI contrast agents are excreted rapidly and exclusively through the renal pathway. One of the few exceptions is an acyclic compound, Gd-EOB-DTPA, which has a mixed clearance (50% renal, 50% biliary) and is used for imaging of the liver and biliary system. Gd-BOPTA and MS-325 have predominantly renal elimination with <10% elimination through the biliary system. […] We illustrated with our studies that there is a significant variation in the biodistribution profiles despite the small structural differences of the chiral substituents (Supplementary Fig. 20). Gd biodistribution in BALB/c mice was measured by ICP-MS at 5, 15, 30, 60, 180 and 360 min following injection. […] Low levels of Gd(III) are present at 6 h post injection. […] The specific and unusual localisation of [GdL2]^− in the liver makes it a potential hepatobiliary-specific MRI contrast agent.
as §1
Complexes [GdL1]^−, [GdL2]^− and [GdL5]^− were prepared by dissolving in saline solution, while [GdDOTA]^− (Dotarem) was diluted in saline solution. Eight-week-old male BALB/c mice (purchased from BioLASCO, Taiwan) each weighing approximately 25 g were administered with a single dose of 0.025 mmol/kg compound ([GdL1]^−, [GdL2]^−, [GdDOTA]^− and [GdL5]^−; 3 mice per compound per time point) in a 100 μl volume via lateral tail vein injection. The mice were then euthanized, and their blood collected by cardiac puncture at each time point (5, 15, 30, 60, 180 or 360 min post injection). A control group of 4 mice was treated with saline and killed at time point 0. The liver, lung, heart, kidneys, spleen and brain were removed from the animals and weighed. Gd content in tissue and blood samples was quantified via ICP-MS analysis. All experiments were performed in accordance with the NIH Guide for the Care and Use of Laboratory Animals and approved by the Institutional Animal Care and Use Committee of Massachusetts General Hospital or by the Department of Health of the Hong Kong Government and the Animal Subjects Ethics Sub-Committee of Hong Kong Polytechnic University.

A short description of data set [3]: In vivo dynamic T1-weighted MR imaging at 4.7T. The arrangement: species or system C57/Bl6 mice. Particulars: 0.1 mmol per kg i.v., 4.7 tesla, n = 1. The method, then: Dynamic T1-weighted MR imaging at 4.7 tesla was performed with C57/Bl6 mice before, during, and after 0.1 mmol per kg injection of each compound (Fig. 7).
as §2

Data set [4] is described as follows: Relaxivity measurements at 1.41T and 37 °C. Format: physicochemical. The method, then:
(§3) Relaxivity measurements were performed on a Bruker mq60 Minispec at 1.41T and 37 °C. Longitudinal (T1) relaxation times were measured using an inversion recovery experiment with 10 inversion times of duration ranging between 0.05 × T1 and 5 × T1. Transverse (T2) relaxation times were measured using a CPMG pulse sequence. Relaxivity (r1, r2) was determined from the slope of a plot of 1/T1,2 vs [Gd] for at least 4 concentrations of Gd(III) (data shown in Supplementary Figs. 93–110). The T2 relaxation times of ^17O at 11.7T were estimated from the full-width at half-height of the H2^17O resonance at temperatures ranging from 278 to 368K. Reduced relaxation rates (1/T2r) were calculated by taking the difference of 1/T2 measured in the presence and absence of Gd(III) and dividing by the mole fraction of coordinated water molecules, assuming q = 1. […] However, at the high magnetic field used, and because of the very-fast water exchange rates observed, there was negligible contribution of T1e, and the data were refit to a two-parameter model using the water exchange rate at 310K (τM) and enthalpy of activation for water exchange (ΔH^‡) as adjustable parameters. The Gd-O hyperfine coupling constant, A/ħ, was assumed to be -3.8 × 10^6 rad s^−1 [57], [58]. Samples were prepared in neat H2O adjusted and enriched with a small amount of H2^17O.

A short description of data set [5]: 17O NMR water exchange (residence time of water co-ligand). Format: physicochemical. As to conditions: 17O NMR at 11.7T; for τM^310K, mean residence time of the water co-ligand at 310 K: q = 1 assumed. The method, then:
as §3

The nature of data set [6]: Kinetic stability of Gd complexes monitored by RP-HPLC (acid, base, DTPA, DOTA, ZnCl2). Particulars: for stability and interconversion: one equivalent of DOTA ligand in 1N HCl. Format: physicochemical. The source says: The kinetic stability of GBCAs, which reflects the dissociation of the Gd ions from its chelate is used to predict the stability in vivo[10]. The proton-assisted dissociation and direct attack of the endogenous ions are regarded as two main pathways that induced the dissociation of the chelates. The inertness of our Gd(III) complexes was maintained up to 7 days after addition of 1000 equivalents of a competitive ligand, DTPA (Supplementary Fig. 7 & 8). […] The harshest condition tried was setting the complexes of [GdL2A]^−, [GdL2B]^− and [GdDOTA]^− in 1N HCl (Fig. 5, Supplementary Figs. 13 - 15).
Fig. […] Error bars for [GdL2A]^- and [GdL2B]^- refer to the standard error of mean (S.E.M.), statistical data fitting analysis (n = 3; s.e.m.)

Setting [7] is: 1N HCl, room temperature, after 487 h.

Regarding `C[C@H]1CN(CC(=O)[O-])[C@@H](C)CN(CC(=O)[O-])[C@@H](C)CN(CC(=O)[O-])[C@@H](C)CN1CC(=O)[O-].[Gd+3]` [[GdL1]^−], in data set [1], the “Gd concentration in blood” value worked out at 1.04 nmol Gd per gram tissue, the “Gd concentration in gall bladder” value is 139.87 nmol Gd per gram tissue, the “Gd concentration in heart” value came out at 1.68 nmol Gd per gram tissue and the “Gd concentration in intestines” value amounted to 7.75 nmol Gd per gram tissue. Further, in data set [1], the “Gd concentration in kidney” value is given as 16.71 nmol Gd per gram tissue, the “Gd concentration in liver” value amounted to 1.64 nmol Gd per gram tissue, the “Gd concentration in lung” value turned out to be 1.81 nmol Gd per gram tissue and the “Gd concentration in muscle” value is listed as 4.29 nmol Gd per gram tissue. Moreover, in data set [1], the “Gd concentration in spleen” value is 6.63 nmol Gd per gram tissue, the “Gd concentration in stomach” value is on record as 11.35 nmol Gd per gram tissue and the “Gd concentration in tail” value was 4.57 nmol Gd per gram tissue. The “Gd biodistribution / elimination profile” value in data set [2] is “near equal renal and hepatic clearance”. Further, the “MR enhancement of liver and gall bladder” value in data set [3] is “some enhancement of the liver and gall bladder”. In data set [4] (4.5% w/v HSA (1.4T)), this molecule came in with a r1 relaxivity of 4.5 mM⁻¹ s⁻¹. The same molecule had a r1 relaxivity in data set [4] (Human Plasma (1.4T)) of 4.6 mM⁻¹ s⁻¹. The r1 relaxivity in data set [4] (Water (1.4T)) was determined as 4.1 mM⁻¹ s⁻¹. Besides, in data set [5], the “ΔH^‡, enthalpy change of activation of water exchange” value came out at 3.82 ± 0.335 kcal/mol and the “τM^310K, mean residence time of the water co-ligand at 310 K” value (from here on “τM^310K, mean residence time”) is given as 13 ± 0.4 ns.
Take `CC[C@H]1CN(CC(=O)[O-])[C@@H](CC)CN(CC(=O)[O-])[C@@H](CC)CN(CC(=O)[O-])[C@@H](CC)CN1CC(=O)[O-].[Gd+3]` [[GdL2A]^−]: the “Gd concentration in gall bladder” value in data set [1] is 854 nmol Gd per gram tissue. Also, in data set [1] (listed as GdL2A), the “Gd concentration in blood” value amounted to 0.49 nmol Gd per gram tissue, the “Gd concentration in gall bladder” value worked out at 854.21 nmol Gd per gram tissue, the “Gd concentration in heart” value came to 1.82 nmol Gd per gram tissue and the “Gd concentration in intestines” value was 0.05 nmol Gd per gram tissue. Besides, in data set [1] (listed as GdL2A), the “Gd concentration in kidney” value was 20.92 nmol Gd per gram tissue, the “Gd concentration in liver” value is 10.47 nmol Gd per gram tissue, the “Gd concentration in lung” value is reported as 3.61 nmol Gd per gram tissue and the “Gd concentration in muscle” value came to 5.18 nmol Gd per gram tissue. In addition, in data set [1] (listed as GdL2A), the “Gd concentration in spleen” value was determined as 4.72 nmol Gd per gram tissue, the “Gd concentration in stomach” value is 3.14 nmol Gd per gram tissue and the “Gd concentration in tail” value is listed as 2.13 nmol Gd per gram tissue. In data set [3], the “MR enhancement of liver and gall bladder” value was “very similar behaviour to [GdL2B]^−”. In addition, the decomplexation entry in data set [6] (0.1N NaOH, over 10 days) is “negligible decomplexation”. The decomplexation entry in data set [6] (setting [7]) was “almost no decomplexation”. For the same molecule, in data set [6] (1N HNO3, over 10 days), the decomplexation entry is given as “negligible decomplexation”. Besides, the decomplexation entry in data set [6] (100 equivalents of zinc chloride at 50 °C, ~100 h) is “no obvious decomplexation”. The stability and interconversion entry in data set [6] is recorded as “no interconversion was observed”. In addition, the r1 relaxivity in data set [4] (4.5% w/v HSA (1.4T)) stood at 4.7 mM⁻¹ s⁻¹. Also, in data set [4] (Human Plasma (1.4T)), the r1 relaxivity came to 4.7 mM⁻¹ s⁻¹. In data set [4] (Water (1.4T)), this molecule yielded a r1 relaxivity of 4.2 mM⁻¹ s⁻¹. In data set [5], the “ΔH^‡, enthalpy change of activation of water exchange” value stood at 10.3 ± 0.478 kcal/mol and the “τM^310K, mean residence time” value was found to be 6.6 ± 0.4 ns.
With `CC[C@H]1CN(CC(=O)[O-])[C@@H](CC)CN(CC(=O)[O-])[C@@H](CC)CN(CC(=O)[O-])[C@@H](CC)CN1CC(=O)[O-].[Gd+3]` [[GdL2B]^−], the “Gd concentration in gall bladder” value in data set [1] was 1066 nmol Gd per gram tissue. Also, in data set [1] (listed as GdL2B), the “Gd concentration in blood” value came out at 0.60 nmol Gd per gram tissue, the “Gd concentration in gall bladder” value is listed as 1066.22 nmol Gd per gram tissue, the “Gd concentration in heart” value stood at 3.09 nmol Gd per gram tissue and the “Gd concentration in intestines” value is 47.07 nmol Gd per gram tissue. For the same molecule, in data set [1] (listed as GdL2B), the “Gd concentration in kidney” value worked out at 7.42 nmol Gd per gram tissue, the “Gd concentration in liver” value was found to be 1.12 nmol Gd per gram tissue, the “Gd concentration in lung” value came out at 2.63 nmol Gd per gram tissue and the “Gd concentration in muscle” value amounted to 5.43 nmol Gd per gram tissue. Further, in data set [1] (listed as GdL2B), the “Gd concentration in spleen” value was determined as 4.82 nmol Gd per gram tissue, the “Gd concentration in stomach” value turned out to be 1.05 nmol Gd per gram tissue and the “Gd concentration in tail” value is 2.64 nmol Gd per gram tissue. Further, in data set [3], the “MR enhancement of liver and gall bladder” value is “profound enhancement of the liver and gall bladder”; the “MR signal in the kidneys over time / at 60 min post injection” value is given as “approached baseline”. Also, in data set [6] (0.1N NaOH, over 10 days), the decomplexation entry is “negligible decomplexation”. In addition, the decomplexation entry in data set [6] (setting [7]) is given as “only minimal decomplexation”. Further, the decomplexation entry in data set [6] (1N HNO3, over 10 days) is on record as “negligible decomplexation”. Besides, the stability and interconversion entry in data set [6] was “no interconversion was observed”. In addition, the r1 relaxivity in data set [4] (4.5% w/v HSA (1.4T)) was determined as 4.8 mM⁻¹ s⁻¹. In data set [4] (Human Plasma (1.4T)), this molecule yielded a r1 relaxivity of 4.9 mM⁻¹ s⁻¹. The molecule also came in with a r1 relaxivity in data set [4] (Water (1.4T)) of 3.9 mM⁻¹ s⁻¹. Further, the “τM^310K, mean residence time” value in data set [5] worked out at 1.1 ± 0.1 ns.

(Values after PMC5829242, “Chiral DOTA chelators as an improved platform for biomedical imaging and therapy applications” (Nature Communications, 2018).)
